# Reference: patent US20250120928A1 (University of Maryland, Baltimore, priority 2021, published 2025)
# “Also recorded” adds a separate entry of the source.
# How the values were obtained:
# [1] = test system: B cells (B220+) isolated from splenocytes; test: Splenocyte apoptosis and cell death by AV/PI flow cytometry, B cells; format: cell-based
# Description: Splenocytes were isolated from spleens as previously described. Briefly, 5-12-week C57BL/6J female mice were euthanized and the spleen was isolated. The spleen was processed into single-cell suspensions using a 40 μm cell strainer and flushed with cold PBS supplemented with 1% FBS and 0.4% 0.5 M EDTA (Quality Biological, Gaithersburg, MD). Erythrocytes were lysed with ACK lysis buffer (Quality Biological, Gaithersburg, MD). […] Subsequently, splenocytes were stimulated with 100 ng/mL LPS for 24 hours. Splenocytes were then washed with cold PBS supplemented with 1% FBS and 0.4% 0.5 M EDTA and FcR blocked, as previously mentioned. Splenocytes were then stained with purified anti-mouse PE/Cyanine7 CD45R/B220 antibody (#103222) (BioLegend, San Diego, CA) for the B cell population. SAHA and SAHA-OH apoptosis and cell death were then assessed using the FITC-AV Apoptosis Detection Kit with PI via flow cytometry, as previously mentioned. Flow cytometry data were collected using a Cytex Aurora flow cytometer. Flow plots and data processing was done using FCS Express 7 Flow Cytometry De Novo Software (De Novo, Glendale, CA).
# [2] = test system: LPS-stimulated bone marrow macrophages (BMMØ); test: BMMØ cytokine secretion following LPS stimulation (ELISA, Luminex); format: cell-based, C57BL/6J mice
# Description: (§1) Three hours later, cells were stimulated with 100 ng/mL LPS. After 48 hours, cell culture supernatants were collected and analyzed by enzyme-linked immunosorbent assays (ELISA) (BioLegend, San Diego, CA) to measure murine IL-6 and TNFα. MAGPIX Luminex bead-based multiplex ELISA (Thermo Fisher Scientific, Waltham, MA) measured for 7 various cytokines and chemokines, and data were analyzed using the Luminex xPONENT software (Millipore) as per manufacturer's instructions. The 7-plex panel included murine IFNβ, IL-10, IL-6, IL-1β, MCP-1 (CCL2), TNFα, and GROα (CXCL1).
# as §1, with “After” for “Three hours later, cells were stimulated with 100 ng/mL LPS. After”, “(Milli-pore)” for “(Millipore)”, “TL-6,” for “IL-6,”
# [3] = test system: T cells (CD3+) from splenocytes; test: Splenocyte apoptosis and cell death by AV/PI flow cytometry, T cells; format: cell-based; details: concentrations up to 30 μM
# [4] = test system: BMMØs; format: cell-based; details: 0-30 μM
# Description: (§2) Three hours later, cells were stimulated with 100 ng/mL LPS. After 48 hours, cells were lifted using Versene and washed with cold PBS supplemented with 1% FBS and 0.4% 0.5 M EDTA (Quality Biological, Gaithersburg, MD). FcR blocking was performed with purified anti-mouse CD16/32 antibody (#101301) (Biolegend, San Diego, CA) prior to staining with Annexin V-FITC and propidium iodide kit (#640914) (BioLegend, San Diego, CA) for apoptosis and cell death. Cell staining was conducted according to BioLegend protocols for flow cytometry. Flow cytometry data were collected using a Becton Dickinson LSR II or Becton Dickinson Canto II flow cytometer. Flow plots and data processing was done using FCS Express 7 Flow Cytometry De Novo Software (De Novo, Glendale, CA).
# as §2, with “After” for “Three hours later, cells were stimulated with 100 ng/mL LPS. After”
# [5] = test system: BMMØs; test: Western blot analysis of acetyl-histone H3 and acetyl-α-tubulin; details: 10 μM, unstimulated BMMØs, 4 and 9 hours
# Description: Day 8 BMMØs were seeded at 1×10^6 cells/well in sterile 6-well plates incubated at 37° C. and 5% CO2 overnight to allow for cell adherence. […] Cells were lysed with Halt™ Protease Inhibitor Cocktail (Cat #78429) (Thermo Fisher, Waltham MA) in RIPA Buffer (Cat #R0278) (Sigma-Aldrich, St. Louis, MO) and scraped with a cell scraper (VWR, Radnor, PA). Lysates were sonicated with a ⅛^th needle tip using a Cole-Parmer 500-Watt Ultrasonic Homogenizer at 40% amplitude for 10 seconds on ice. Lysates were then centrifuged at 4° C. for 20 minutes at 12,000×g. The supernatant was collected and frozen at −80° C. until ready for western blot analysis. Protein lysates were produced using 50/50 sample to 2×SDS/PAGE sample buffer. Proteins were then separated by SDS/PAGE and immunoblotted using Histone H3 (D1H2) XP, Acetyl-Histone H3 (lys9/Lys14), α-Tubulin (11H10), Acetyl-α-Tubulin (Lys40) (D20G3) XP and β-Actin as primary antibodies. ECL was used for detection.
# Day 8 BMMØs were seeded at 1×10^6 cells/well in sterile 6-well plates incubated at 37° C. and 5% CO2 overnight to allow for cell adherence. […] Cells were lysed with Halt™ Protease Inhibitor Cocktail (Cat #78429) (Thermo Fisher, Waltham MA) in RIPA Buffer (Cat #R0278) (Sigma-Aldrich, St. Louis, MO) and scraped with a cell scraper (VWR, Radnor, PA). Lysates were sonicated with a ⅛th needle tip using a Cole-Parmer 500-Watt Ultrasonic Homogenizer at 40% amplitude for 10 seconds on ice. Lysates were then centrifuged at 4° C. for 20 minutes at 12,000×g. The supernatant was collected and frozen at −80° C. until ready for western blot analysis. Protein lysates were produced using 50/50 sample to 2×SDS/PAGE sample buffer. Proteins were then separated by SDS/PAGE and immunoblotted using Histone H3 (D1H2) XP, Acetyl-Histone H3 (Lys9/Lys14), α-Tubulin (11H10), Acetyl-α-Tubulin (Lys40) (D20G3) XP and β-Actin as primary antibodies. ECL was used for detection.
# [6] = test system: unstimulated BMMØs; test: MTS assay; format: cell-based, C57BL/6J mice; details: Mus musculus; unstimulated BMMØs treated for 48 hours; read-out: IC50 (MTS assay, cellular proliferation)
# Description: Cells were then washed with PBS and 50 μL of MTS solution was added to each well and incubated for 1 hour. The optical density (O.D.) of the solution was measured using a SpectraMax iD3 microplate reader at 570 nm. The percentage of cell proliferation was measured as the ratio of O.D. at 570 nm to no treatment control. IC50 values were calculated using GraphPad Prism 9 program based on a sigmoidal dose-response equation.
# [7] = 0-30 μM for 3 hours, then LPS 100 ng/mL 48 hours, ELISA
# [8] = 10 μM, 3 hours before 48-hour LPS
# [9] = 10 μM, 3 hours before 48-hour LPS, Luminex, relative to LPS control
smiles,measurement,setting,value
"O=C(CCCCCCC(=O)Nc1ccc(CO)cc1)NO [SAHA-OH, N^1-hydroxy-N^8-(4-(hydroxymethyl)phenyl)octanediamide]",toxicity profile for the B cell population,[1]; 0-30 μM,concentration-dependent toxicity profiles
same,decrease in cell death of the B cell population versus SAHA,[1]; 10 μM,3 fold
same,enhancement in viability of the B cell population versus SAHA,[1]; 10 μM,5 fold
same,IL-6 cytokine secretion,[2]; [7],concentration-dependent reduction
same,TNFα cytokine secretion,[2]; [7],concentration-dependent reduction
same,IL-6 secretion,[2]; [8],less effective than SAHA; also recorded: only moderately suppressed
same,MCP-1 cytokine secretions,[2]; [8],non-significantly affected
same,IFNβ cytokine levels,[2]; [9],similarly suppressed cytokine levels compared to SAHA
same,IL-1β cytokine levels,[2]; [9],did not affect IL-1β (FIG. 8B) cytokine levels as effectively as 10 μM SAHA
same,TNFα cytokine levels,[2]; [9],similarly suppressed cytokine levels compared to SAHA
same,GROα (CXCL1) secretion,"[2]; 10 μM, Luminex, compared to LPS or SAHA-treated BMMØs",significant upregulation
same,toxicity for the T cell population,[3],minimal toxicity
same,apoptosis (AV+/PI−) over concentration,[4],apoptosis induction
same,viability (AV−/PI−) over concentration,[4],concentration-dependent viability reduction
same,acetylation of histone H3,[5],slight decrease in histone H3 acetylation compared to SAHA; also recorded: reduced Ac—H3 activity compared to SAHA
same,acetylation of α-tubulin,[5],similarly resulted in the acetylation; also recorded: similar
same,IC50,[6],1.3 µM
